In paper PMC9583322, “Vicinal Diaryl-Substituted Isoxazole and Pyrazole Derivatives with In Vitro Growth Inhibitory and In Vivo Antitumor Activity” (ACS Omega, 2022):

Tests used:
PARP = PARP cleavage western blotting; type: cell-based, human; details: 5 μM, 48 h; MCF7, MDA-MB-231, Mahlavu; except for 11 treated MCF7 and Huh7 cells
Description: Cells were treated for 5 μM compounds 11 and 85 or control (DMSO). The treated cells were collected with a scraper at end of 48 h incubation and lysates were prepared. Protein concentration was calculated with a BCA assay. The protein levels were analyzed using protein electrophoresis according to the manufacturer’s protocol for near-infrared (NIR) Western Blot analysis (Mini-PROTEAN Tetra Cell Systems, Bio-Rad). The samples (40 μg /well) were loaded onto TGX precast gels, and protein transfer from gel to an LF-PVDF membrane was done using Trans-Blot Turbo System (Bio-Rad). Primary antibodies (PARP, CST, #9532S) and Calnexin (CST, #2679) and secondary antibodies IRDye 680RD Goat Anti Rabbit (Li-Cor, # 92668071) and IRDye- 800CW Goat Anti Rabbit (Licor, # 926e32211) were used for western blotting, and the proteins were monitored in fluorescence system using Odyssey CLx- LICOR imaging system.[32]

HOP-62 = assay: NCI-60 single-dose screen; type: cell-based; details: Homo sapiens, HOP-62, Non-Small Cell Lung Cancer, read-out: % Growth Inhibition (GI%)
Description: (§1) Moreover, in vitro single-dose anticancer screening of 11 and 85 at 10 μM was performed utilizing the stable panel of 60 cell lines comprising 9 different cancer types at the National Cancer Institute (NCI) under the Developmental Therapeutics Program (Table S1).[31]

SN12C = assay: NCI-60 single-dose screen; type: cell-based; details: Homo sapiens, Renal Cancer, read-out: % Growth Inhibition (GI%)
Description: as §1

MDA-MB-231 xenografts = assay: MDA-MB-231 breast cancer xenograft; type: in vivo, mouse; details: nude mice, 40 mg/kg oral, twice a week, 4 weeks
Description: (§2) Mahlavu cells (10 × 10^6 cells/mouse) prepared in 150 μL of DMEM were injected subcutaneously to the flank of 6–8 weeks old male athymic nude mice, while MDA-MB-231 cells (2 × 10^6cells/mouse) in 1:1 DMEM and matrigel were injected into mammary fat pad (MFP) of 6–8 weeks old female athymic nude mice. Tumor volume and mouse weight were measured twice a week using calipers. When the tumor volume reached ∼150 mm^3, xenografts were randomized into groups (6 mice per group), and the mice were administered subsequently with 11 or 85 (40 mg/kg in 0.5% hydroxypropyl methylcellulose plus 1% Tween 80) or vehicle by gavage feeding (3–4 days/week) for 4 weeks. The mice were sacrificed 30 days after initiation of the compound treatment and tumors were collected. Two-way ANOVA was performed for statistical significance by GraphPad Prism. All of the mice were maintained under a temperature-controlled environment with a 12 h light/dark cycle and received a standard diet and water ad libitum.

[1] = system: Mahlavu, Huh7, MCF7, and MDA-MB-231; assay: Annexin V flow cytometry; type: cell-based, human; details: 5 μM; compared to the control group
Description: Mahlavu, Huh7, MCF7, and MDA-MB-231 were seeded onto six-well plates. After 24 h, the cells were incubated with 5 μM compounds 11 and 85 by keeping DMSO as a negative control. […] PI and Annexin V dyes were added onto cell lysates for 15 min at room temperature in the dark to stain the cells for detecting apoptotic cell populations. The cells were analyzed by flow cytometry.

[2] = system: hepatocellular carcinoma and breast cancer cell lines; assay: SRB cytotoxicity, cell line panel; type: cell-based; details: Homo sapiens, range over hepatocellular carcinoma and breast cancer cell lines
Description: Mahlavu, FOCUS, SNU475 (1000 cell/well in 150 μL/well); Huh7, MCF7 (2500 cell/well in 150 μL/well); HepG2, Hep3B, SKBR3 (3000 cell/well in 150 μL/well); PLC-PRF-5, Hep40 (5000 cell/well in 150 μL/well); MDA-MB-231, MDA-MB-468, MCF10A (6000 cell/well in 150 μL/well); and ZR-75 (7500 cell/well in 150 μL/well) were cultured in 96-well plates and were inoculated in an incubator for 24 hours. The compounds were dissolved in dimethyl sulfoxide (DMSO) (Sigma, St Louis, MO) as a 20 mM stock solution. The treatment of cells with the compounds was done in a concentration range starting from 40 to 2.5 μM. The compounds which were below 2.5 μM were tested in a concentration range from 2.5 to 0.15 μM. End of the 72h compound treatment, the cells were fixed using 10% (v/v) trichloroacetic acid (MERCK) for an hour and washed with ddH2O, and left for air-drying. The fixed plates were stained with 50 μL of sulforhodamine B (SRB) solution (Sigma) at RT for 10 min. To remove unbound SRB dye, acetic acid was used to wash cells three times and left for drying. The protein-bound SRB was solubilized with 10 mM Tris-base (Sigma) and their absorbance was measured with a 96-well plate reader at 515 nm wavelength (ELx800, Biotek). The IC50 values of compounds were calculated in comparison with control group DMSO. Data with R^2 values larger than 0.9 are considered significant.

[3] = system: Mahlavu, Huh7, MCF7, and MDA-MB-231 cells; assay: Hoechst nuclear staining for cell death; type: cell-based, human; details: IC100 concentrations, 48 h
Description: Mahlavu, Huh7, MCF7, and MDA-MB-231 cells were cultured onto cover slides in six-well plates for 24 h according to their cell growth rate. […] The 1× PBS was used to wash the cells three times, and the cells were fixed with 100% ice-cold methanol. Then, the cells were stained with 1 μg/mL Hoechst (#33258, Sigma). The cells were analyzed under the fluorescence microscope (Nikon Eclipse 50i).

[4] = system: Mahlavu, Huh7, MDA-MB-231, and MCF-7; assay: Real-time cell electronic sensing (RT-CES); type: cell-based, human; details: 2.5, 5, 10 μM; compared to control (DMSO)
Description: (§3) To monitor the real-time cell growth of cells and cytotoxicity of compounds, the xCELLigence system (Roche Applied Sciences) was used. The cells were seeded onto 96-well E-Plate Mahlavu (1500 cell/well), MCF7, Huh7 (2500 cell/well), MDA-MB-231 (5000 cell/well), and MCF10A (6000 cell/well) in 100 μL of the medium/well. To examine the proliferation of cells, the cellular growth was monitored as cell index (CI) every 30 min for 24 h. When the cells were in a log growth phase, treatment with compounds 11 and 85 in 2.5, 5, and 10 μM concentrations was done, the CI values were recorded every 10 min for 24 h for controlling fast drug response and then every 30 min for the remaining 48 h for long-term dose response. After 72 h of incubation, the cellular growth ratios were calculated by CIDrug/CIDMSO.

MCF10A = assay: Real-time cell electronic sensing (RT-CES); type: cell-based, human; details: 2.5, 5, 10 μM; immortalized normal breast epithelial cells
Description: as §3

Mahlavu xenografts = assay: Mahlavu hepatocellular carcinoma xenograft; type: in vivo; details: 40 mg/kg oral; for reduction in tumor volume: Mahlavu xenografts, nude mice, twice a week, 4 weeks; for Tolerability of the administered dose: in all studies (Mahlavu and MDA-MB-231 xenografts), no significant bodyweight loss, toxic effects or mortality
Description: as §2

Compound	PARP cleavage (PARP)	inhibition at 10 µM (HOP-62) [%]	inhibition at 10 µM (SN12C) [%]	decrease in tumor volumes as compared to the control group (MDA-MB-231 xenografts) [%]	percentage of apoptotic populations (Annexin V) [1]	IC50 [2] [µM]	Nuclear morphology by Hoechst staining [3]	Real-time cell growth response, cancer cell lines [4]	Real-time cell growth response, MCF10A (MCF10A)	reduction in tumor volume (Mahlavu xenografts) [%]	Tolerability of the administered dose (Mahlavu xenografts)
Cc1ccccc1COc1ccc(-c2noc(C)c2-c2ccc(Cl)cc2)cc1 [compound 11, 4-(4-Chlorophenyl)-5-methyl-3-(4-((2-methylbenzyl)oxy)phenyl)isoxazole]	increase in PARP cleavage	48.4	31.7	~50	increased	0.7 to 9.5	Apoptotic bodies were detectable	inhibition in the growth	no difference in the growth	85	well tolerated
Cc1ccccc1COc1ccc(-c2ccnn2-c2ccc(Cl)cc2)cc1 [compound 85, 1-(4-Chlorophenyl)-5-(4-((2-methylbenzyl)oxy)phenyl)-1H-pyrazole]	increase in PARP cleavage	50.7	32.4	~50	increased	0.7 to 9.5	Apoptotic bodies were detectable	inhibition in the growth	no difference in the growth	40	well tolerated
